Measurements: US20100137449A1, “SUBSTITUTED 1,3-CYCLOPENTADIONE MULTI-TARGET PROTEIN KINASE MODULATORS OF CANCER, ANGIOGENESIS AND THE INFLAMMATORY PATHWAYS ASSOCIATED THEREWITH” (METAPROTEOMICS, LLC, priority 2007, published 2010)

Assays:
Test in all cases: KinaseProfiler Assay
BrSK1(h) = target: T1, BrSK1(h) (Homo sapiens, UniProt Q8TDC3)
T1 sequence (Q8TDC3 1-778): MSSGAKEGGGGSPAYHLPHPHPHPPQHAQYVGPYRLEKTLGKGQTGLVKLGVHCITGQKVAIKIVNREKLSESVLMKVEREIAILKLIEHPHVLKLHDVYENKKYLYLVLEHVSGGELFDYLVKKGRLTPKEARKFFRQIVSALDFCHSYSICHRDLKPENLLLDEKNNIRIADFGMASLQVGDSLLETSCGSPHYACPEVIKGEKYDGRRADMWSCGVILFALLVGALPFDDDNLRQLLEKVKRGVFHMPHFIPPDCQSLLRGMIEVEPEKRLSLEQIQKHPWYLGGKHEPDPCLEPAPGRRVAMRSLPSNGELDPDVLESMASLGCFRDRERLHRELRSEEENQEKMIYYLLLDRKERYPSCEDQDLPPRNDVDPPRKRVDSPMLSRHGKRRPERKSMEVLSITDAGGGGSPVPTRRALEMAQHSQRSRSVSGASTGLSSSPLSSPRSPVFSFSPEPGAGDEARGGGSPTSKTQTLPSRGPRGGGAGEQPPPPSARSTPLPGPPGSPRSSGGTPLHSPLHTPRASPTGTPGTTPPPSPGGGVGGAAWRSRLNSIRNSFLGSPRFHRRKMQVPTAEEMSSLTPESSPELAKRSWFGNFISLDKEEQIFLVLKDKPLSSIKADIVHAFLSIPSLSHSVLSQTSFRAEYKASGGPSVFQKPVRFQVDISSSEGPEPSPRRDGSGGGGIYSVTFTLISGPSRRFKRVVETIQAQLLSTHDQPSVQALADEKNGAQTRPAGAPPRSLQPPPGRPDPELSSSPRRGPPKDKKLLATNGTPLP

CDK5/p35(h) = CDK5/p35(h) (Homo sapiens, UniProt Q00535)
CK1γ2(h) = CK1γ2(h) (Homo sapiens, UniProt P78368)
cSRC(h) = cSRC(h) (Homo sapiens, UniProt P12931)
Flt3(D835Y)(h) = target: T2, Flt3(D835Y)(h) (Homo sapiens, UniProt P36888, D835Y)
T2 sequence (P36888 27-993 D835Y): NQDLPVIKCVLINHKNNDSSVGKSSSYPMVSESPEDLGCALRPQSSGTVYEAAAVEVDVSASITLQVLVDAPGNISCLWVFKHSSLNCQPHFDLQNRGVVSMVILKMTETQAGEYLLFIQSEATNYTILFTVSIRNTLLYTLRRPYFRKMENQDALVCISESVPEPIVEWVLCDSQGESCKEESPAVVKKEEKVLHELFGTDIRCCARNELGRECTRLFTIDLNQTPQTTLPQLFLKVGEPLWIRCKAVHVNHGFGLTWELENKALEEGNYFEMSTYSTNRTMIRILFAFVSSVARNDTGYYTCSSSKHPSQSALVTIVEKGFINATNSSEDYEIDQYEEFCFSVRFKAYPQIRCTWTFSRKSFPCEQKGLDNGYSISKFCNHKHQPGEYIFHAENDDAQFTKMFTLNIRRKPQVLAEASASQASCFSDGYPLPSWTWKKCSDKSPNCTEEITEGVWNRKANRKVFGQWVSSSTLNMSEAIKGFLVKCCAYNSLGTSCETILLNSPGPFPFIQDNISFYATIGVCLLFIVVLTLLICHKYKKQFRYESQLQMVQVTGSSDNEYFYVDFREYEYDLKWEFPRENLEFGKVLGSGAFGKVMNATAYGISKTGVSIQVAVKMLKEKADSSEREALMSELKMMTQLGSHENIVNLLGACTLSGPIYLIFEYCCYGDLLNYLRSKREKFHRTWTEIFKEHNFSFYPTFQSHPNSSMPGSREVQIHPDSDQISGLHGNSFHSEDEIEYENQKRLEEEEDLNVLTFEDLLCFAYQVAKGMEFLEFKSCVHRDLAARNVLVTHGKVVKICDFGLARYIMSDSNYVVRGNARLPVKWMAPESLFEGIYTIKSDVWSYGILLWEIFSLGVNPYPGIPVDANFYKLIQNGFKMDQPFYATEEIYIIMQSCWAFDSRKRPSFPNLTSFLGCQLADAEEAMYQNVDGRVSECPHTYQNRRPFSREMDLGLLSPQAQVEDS

Rsk1(r) = Rsk1(r) (Rattus norvegicus, UniProt Q63531)
Tie2(Y897S)(h) = Tie2(Y897S)(h) (Homo sapiens, UniProt Q02763, Y897S)
Sequence of Tie2(Y897S)(h) (Q02763 23-1124 Y897S): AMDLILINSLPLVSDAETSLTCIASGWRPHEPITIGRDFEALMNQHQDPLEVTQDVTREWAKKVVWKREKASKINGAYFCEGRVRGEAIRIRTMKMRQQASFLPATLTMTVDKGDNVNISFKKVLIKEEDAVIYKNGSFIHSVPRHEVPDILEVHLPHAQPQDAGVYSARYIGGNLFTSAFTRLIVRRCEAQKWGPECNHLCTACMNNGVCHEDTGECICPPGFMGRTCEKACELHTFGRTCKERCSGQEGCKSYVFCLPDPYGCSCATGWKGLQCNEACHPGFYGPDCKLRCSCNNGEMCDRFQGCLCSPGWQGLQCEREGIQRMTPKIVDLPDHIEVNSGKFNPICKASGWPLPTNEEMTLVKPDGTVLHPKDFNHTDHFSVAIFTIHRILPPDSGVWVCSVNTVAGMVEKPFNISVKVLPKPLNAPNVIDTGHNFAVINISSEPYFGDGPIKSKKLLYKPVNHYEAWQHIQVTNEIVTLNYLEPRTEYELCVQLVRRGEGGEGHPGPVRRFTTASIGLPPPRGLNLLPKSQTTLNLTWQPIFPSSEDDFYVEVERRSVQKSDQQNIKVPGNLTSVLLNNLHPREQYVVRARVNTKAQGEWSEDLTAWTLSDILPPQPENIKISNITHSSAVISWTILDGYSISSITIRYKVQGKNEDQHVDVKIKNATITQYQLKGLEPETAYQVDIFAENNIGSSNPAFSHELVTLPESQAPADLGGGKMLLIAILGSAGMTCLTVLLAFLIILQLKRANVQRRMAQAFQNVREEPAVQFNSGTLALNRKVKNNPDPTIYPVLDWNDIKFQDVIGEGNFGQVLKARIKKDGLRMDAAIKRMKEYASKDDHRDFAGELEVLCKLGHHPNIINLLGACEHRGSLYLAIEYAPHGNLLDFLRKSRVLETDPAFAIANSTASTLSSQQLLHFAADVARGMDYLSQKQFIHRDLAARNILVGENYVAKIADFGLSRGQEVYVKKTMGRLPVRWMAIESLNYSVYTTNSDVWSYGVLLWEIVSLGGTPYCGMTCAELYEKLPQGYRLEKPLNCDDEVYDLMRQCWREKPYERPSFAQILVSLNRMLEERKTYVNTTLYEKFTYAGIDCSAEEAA

Sequence of CDK5/p35(h) (Q00535 whole entry): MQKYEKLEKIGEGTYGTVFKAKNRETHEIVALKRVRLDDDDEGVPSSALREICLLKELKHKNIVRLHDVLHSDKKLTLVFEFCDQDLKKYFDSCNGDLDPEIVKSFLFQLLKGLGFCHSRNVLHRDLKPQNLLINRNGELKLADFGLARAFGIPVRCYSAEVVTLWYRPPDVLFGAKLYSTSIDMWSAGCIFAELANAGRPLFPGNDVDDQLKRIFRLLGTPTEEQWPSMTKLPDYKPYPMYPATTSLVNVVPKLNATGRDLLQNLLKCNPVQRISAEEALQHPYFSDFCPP
Sequence of CDK5/p35(h) (Q15078 whole entry partner): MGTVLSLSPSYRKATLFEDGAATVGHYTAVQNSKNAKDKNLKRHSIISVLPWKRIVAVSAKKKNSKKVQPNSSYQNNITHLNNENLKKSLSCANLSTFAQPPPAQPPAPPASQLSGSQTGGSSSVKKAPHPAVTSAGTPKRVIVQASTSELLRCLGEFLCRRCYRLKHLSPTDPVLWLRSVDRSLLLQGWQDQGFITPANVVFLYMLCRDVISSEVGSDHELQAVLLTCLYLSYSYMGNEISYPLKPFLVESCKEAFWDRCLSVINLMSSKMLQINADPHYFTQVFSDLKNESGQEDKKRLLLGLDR
Sequence of CK1γ2(h) (P78368 whole entry): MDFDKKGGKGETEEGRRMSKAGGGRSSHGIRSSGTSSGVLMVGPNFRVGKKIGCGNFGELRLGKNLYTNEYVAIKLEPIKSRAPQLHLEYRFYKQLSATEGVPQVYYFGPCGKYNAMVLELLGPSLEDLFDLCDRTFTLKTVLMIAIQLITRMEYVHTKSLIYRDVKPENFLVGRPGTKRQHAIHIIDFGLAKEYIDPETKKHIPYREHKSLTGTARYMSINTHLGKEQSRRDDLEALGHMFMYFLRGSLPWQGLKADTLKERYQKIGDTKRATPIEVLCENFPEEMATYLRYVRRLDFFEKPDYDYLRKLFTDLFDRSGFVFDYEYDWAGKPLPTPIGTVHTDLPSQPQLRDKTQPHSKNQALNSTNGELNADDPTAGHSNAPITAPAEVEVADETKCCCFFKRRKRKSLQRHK
Sequence of cSRC(h) (P12931 whole entry): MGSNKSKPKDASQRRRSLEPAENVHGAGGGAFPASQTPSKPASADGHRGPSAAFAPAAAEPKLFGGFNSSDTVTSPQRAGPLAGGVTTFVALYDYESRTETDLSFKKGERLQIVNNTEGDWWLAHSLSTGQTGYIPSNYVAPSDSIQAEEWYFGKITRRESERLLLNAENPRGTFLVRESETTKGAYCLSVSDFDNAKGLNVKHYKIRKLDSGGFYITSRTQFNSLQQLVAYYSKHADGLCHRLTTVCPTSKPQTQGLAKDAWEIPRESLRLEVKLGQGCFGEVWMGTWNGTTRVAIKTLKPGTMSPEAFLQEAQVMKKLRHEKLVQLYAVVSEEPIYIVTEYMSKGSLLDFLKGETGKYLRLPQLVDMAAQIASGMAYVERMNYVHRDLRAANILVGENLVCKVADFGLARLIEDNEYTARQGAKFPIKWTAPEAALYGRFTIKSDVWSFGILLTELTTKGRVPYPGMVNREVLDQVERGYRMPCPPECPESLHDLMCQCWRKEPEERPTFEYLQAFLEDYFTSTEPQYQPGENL
Sequence of Rsk1(r) (Q63531 whole entry): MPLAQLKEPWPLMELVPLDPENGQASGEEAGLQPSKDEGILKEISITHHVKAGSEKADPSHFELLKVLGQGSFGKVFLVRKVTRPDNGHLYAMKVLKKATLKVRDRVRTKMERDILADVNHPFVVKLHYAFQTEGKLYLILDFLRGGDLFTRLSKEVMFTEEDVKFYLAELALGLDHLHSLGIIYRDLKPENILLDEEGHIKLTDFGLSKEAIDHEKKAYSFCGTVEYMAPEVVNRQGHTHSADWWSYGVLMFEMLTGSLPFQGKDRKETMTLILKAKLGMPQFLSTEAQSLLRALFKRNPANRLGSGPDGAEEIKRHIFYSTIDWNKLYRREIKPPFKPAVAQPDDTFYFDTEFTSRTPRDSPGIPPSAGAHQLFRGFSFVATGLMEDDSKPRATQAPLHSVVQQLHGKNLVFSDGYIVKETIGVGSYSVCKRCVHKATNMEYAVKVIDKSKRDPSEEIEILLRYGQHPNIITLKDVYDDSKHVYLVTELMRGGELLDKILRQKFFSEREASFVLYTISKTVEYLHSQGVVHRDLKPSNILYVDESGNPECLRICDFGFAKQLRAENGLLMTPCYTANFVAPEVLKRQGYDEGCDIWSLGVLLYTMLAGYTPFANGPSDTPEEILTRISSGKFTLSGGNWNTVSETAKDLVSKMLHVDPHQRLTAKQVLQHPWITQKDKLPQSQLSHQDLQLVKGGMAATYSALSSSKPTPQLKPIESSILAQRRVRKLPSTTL

CC(C)CCC(=O)[C@]1(O)C(O)=C(C(=O)C(C)C)C(=O)[C@H]1CCC(C)C [TH2, tetrahydroiso-cohumulone]
kinase inhibition (BrSK1(h); 1 μg/ml): 104% of control | kinase inhibition (BrSK1(h); 5 μg/ml): 101% of control | kinase inhibition (BrSK1(h); 25 μg/ml): 82% of control | kinase inhibition (BrSK1(h); 50 μg/ml): 66% of control | kinase inhibition (BrSK1(h); 100 μg/ml): 50% of control | kinase inhibition (CDK5/p35(h); 1 μg/ml): 105% of control | kinase inhibition (CDK5/p35(h); 5 μg/ml): 98% of control | kinase inhibition (CDK5/p35(h); 25 μg/ml): 106% of control | kinase inhibition (CDK5/p35(h); 50 μg/ml): 80% of control | kinase inhibition (CDK5/p35(h); 100 μg/ml): 90% of control | kinase inhibition (CK1γ2(h); 1 μg/ml): 103% of control | kinase inhibition (CK1γ2(h); 5 μg/ml): 96% of control | kinase inhibition (CK1γ2(h); 25 μg/ml): 79% of control | kinase inhibition (CK1γ2(h); 50 μg/ml): 54% of control | kinase inhibition (CK1γ2(h); 100 μg/ml): 49% of control | kinase inhibition (cSRC(h); 1 μg/ml): 114% of control | kinase inhibition (cSRC(h); 5 μg/ml): 114% of control | kinase inhibition (cSRC(h); 25 μg/ml): 108% of control | kinase inhibition (cSRC(h); 50 μg/ml): 101% of control | kinase inhibition (cSRC(h); 100 μg/ml): 87% of control | kinase inhibition (Flt3(D835Y)(h); 1 μg/ml): 108% of control | kinase inhibition (Flt3(D835Y)(h); 5 μg/ml): 116% of control | kinase inhibition (Flt3(D835Y)(h); 25 μg/ml): 102% of control | kinase inhibition (Flt3(D835Y)(h); 50 μg/ml): 105% of control | kinase inhibition (Flt3(D835Y)(h); 100 μg/ml): 98% of control | kinase inhibition (Rsk1(r); 1 μg/ml): 101% of control | kinase inhibition (Rsk1(r); 5 μg/ml): 102% of control | kinase inhibition (Rsk1(r); 25 μg/ml): 93% of control | kinase inhibition (Rsk1(r); 50 μg/ml): 63% of control | kinase inhibition (Rsk1(r); 100 μg/ml): 36% of control | kinase inhibition (Tie2(Y897S)(h); 1 μg/ml): 82% of control | kinase inhibition (Tie2(Y897S)(h); 5 μg/ml): 46% of control | kinase inhibition (Tie2(Y897S)(h); 25 μg/ml): 27% of control | kinase inhibition (Tie2(Y897S)(h); 50 μg/ml): 35% of control | kinase inhibition (Tie2(Y897S)(h); 100 μg/ml): 32% of control
